Laboratory results as given in the supplement of paper PMC11061612.

Tests used:
Assay in all cases: Bliss excess, mean over the matrix (fraction); higher = more synergy
[1] = tested on: OS-RC-2 (Kidney Carcinoma)
In short: (§1)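 Cell lines in DMEM/F12 or RPMI with 10% FBS were plated in 1536-well plates, held 24 hours at 37°C, 5% CO2, then given two-drug dose matrices for 72 hours (DMSO typically 0.2%). Viability was read by CellTiter-Glo 2.0 luminescence and scaled as inhibition from 0 (vehicle wells) to 1 (blank wells). Combination Emax is the second-highest inhibition in the matrix; Bliss excess is observed combination effect minus expected EA + EB − EA·EB, EA and EB being single-agent effects.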

[2] = tested on: GI-ME-N (Neuroblastoma)
In short: as §1

[3] = tested on: HCC1954 (Breast Carcinoma)
In short: as §1

[4] = tested on: TT2609-C02 (Thyroid Gland Carcinoma)
In short: as §1

[5] = tested on: SISO (Cervical Carcinoma)
In short: as §1

[6] = tested on: Hs-445 (Non-Cancerous)
In short: as §1

[7] = tested on: NCI-H1693 (Lung Adenocarcinoma)
In short: as §1

[8] = tested on: 8-MG-BA (Glioblastoma)
In short: as §1

[9] = tested on: NCI-H2141 (Small Cell Lung Carcinoma)
In short: as §1

[10] = tested on: ONS-76 (Other Solid Carcinomas)
In short: as §1

[11] = tested on: NCI-H2066 (Squamous Cell Lung Carcinoma)
In short: as §1

[12] = tested on: COLO-824 (Breast Carcinoma)
In short: as §1

[13] = tested on: JSC-1 (B-Cell Non-Hodgkin's Lymphoma)
In short: as §1

[14] = tested on: CAPAN-2 (Pancreatic Carcinoma)
In short: as §1

[15] = tested on: IGR-37 (Melanoma)
In short: as §1

[16] = tested on: KARPAS-422 (B-Cell Non-Hodgkin's Lymphoma)
In short: as §1

[17] = tested on: FU97 (Gastric Carcinoma)
In short: as §1

[18] = tested on: PANC-10-05 (Pancreatic Carcinoma)
In short: as §1

[19] = tested on: NCI-H2591 (Mesothelioma)
In short: as §1

[20] = tested on: MDST8 (Colorectal Carcinoma)
In short: as §1

| SMILES | Bliss excess [1] | Bliss excess [2] | Bliss excess [3] | Bliss excess [4] | Bliss excess [5] | Bliss excess [6] | Bliss excess [7] | Bliss excess [8] | Bliss excess [9] | Bliss excess [10] | Bliss excess [11] | Bliss excess [12] | Bliss excess [13] | Bliss excess [14] | Bliss excess [15] | Bliss excess [16] | Bliss excess [17] | Bliss excess [18] | Bliss excess [19] | Bliss excess [20] |
| --- | --- | --- | --- | --- | --- | --- | --- | --- | --- | --- | --- | --- | --- | --- | --- | --- | --- | --- | --- | --- |
| CC(=O)c1c(C)c2cnc(Nc3ccc(N4CCNCC4)cn3)nc2n(C2CCCC2)c1=O [Palbociclib] + Cn1cnc2c(F)c(Nc3ccc(Br)cc3Cl)c(C(=O)NOCCO)cc21 [Selumetinib] (first compound max 10 µM, 7x7, partner max 10 µM) | -0.0712 | -0.0012 | -0.0152 | -0.0666 | -0.0488 | -0.0852 | -0.0306 | -0.0061 | -0.0432 | 0.0132 | -0.0344 | -0.0652 | 0.0842 | -0.0199 | 0.0324 | 0.062 | 0.0707 | -0.0409 | -0.0161 | -0.031 |
| COc1cccc(OCCCN)c1-c1cc(Nc2cnc(C#N)cn2)n[nH]1 [Prexasertib] + C=CCn1c(=O)c2cnc(Nc3ccc(N4CCN(C)CC4)cc3)nc2n1-c1cccc(C(C)(C)O)n1 [AZD1775] (first compound max 1 µM, partner max 1 µM) | -0.0531 | 0.0161 | 0.114 | 0.0015 | 0.0814 | -0.0366 | -0.0139 | 0.0358 | -0.0348 | -0.0299 | -0.0337 | 0.0432 | 0.0682 | -0.0231 | 0.0322 | 0.0841 | 0.0052 | -0.0342 | 0.0951 | 0.0758 |
| COc1cccc(OCCCN)c1-c1cc(Nc2cnc(C#N)cn2)n[nH]1 [Prexasertib] + CCc1c2c(nc3ccc(O)cc13)-c1cc3c(c(=O)n1C2)COC(=O)[C@]3(O)CC [SN-38] (first compound max 1 µM, 7x7, partner max 0.3 µM) | -0.0392 | -0.0326 | 0.123 | -0.0467 | 0.0277 | -0.0189 | 0.0166 | -0.0166 | 0.0455 | -0.0961 | 0.0285 | 0.101 | -0.0739 | -0.0205 | -0.0727 | 0.0037 | -0.032 | -0.0372 | -0.0353 | -0.1 |
| COc1cccc(OCCCN)c1-c1cc(Nc2cnc(C#N)cn2)n[nH]1 [Prexasertib] + CN(C)CCCOc1ccc(-c2ccc3ncc4c(c3c2)n(C2CCOCC2)c(=O)n4C)cn1 [AZD0156] (first compound max 1 µM, 7x7, partner max 1 µM) | -0.0393 | 0.0737 | -0.0298 | -0.0426 | -0.0056 | -0.0286 | -0.0349 | -0.0349 | 0.009 | -0.0148 | -0.0379 | -0.0047 | -0.0111 | 0.0147 | 0.0026 | 0.0128 | -0.0321 | -0.0435 | -0.0141 | -0.0216 |
| COc1cccc(OCCCN)c1-c1cc(Nc2cnc(C#N)cn2)n[nH]1 [Prexasertib] + C[C@@H]1COCCN1C2=NC(=NC(=C2)C3(CC3)[S@](=N)(=O)C)C4=C5C=CNC5=NC=C4 [AZD6738] (first compound max 1 µM, 7x7, partner max 10 µM) | 0.0743 | 0.0681 | 0.0079 | -0.0002 | 0.0309 | -0.0661 | 0.0816 | -0.0239 | -0.047 | -0.0803 | -0.0154 | -0.0675 | -0.0089 | -0.003 | -0.0621 | -0.0734 | -0.0427 | 0.0258 | 0.0187 | -0.0209 |
| COc1cccc(OCCCN)c1-c1cc(Nc2cnc(C#N)cn2)n[nH]1 [Prexasertib] + Cc1cc2ncnn2cc1Nc1ncc2c(n1)n(C1CCOCC1)c(=O)n2C [AZD7648] (first compound max 1 µM, 7x7, partner max 10 µM) | -0.0226 | 0.107 | -0.0179 | -0.0157 | 0.0136 | -0.02 | 0.0337 | -0.058 | -0.0315 | -0.031 | 0.0214 | -0.01 | -0.0189 | -0.0045 | -0.058 | -0.0787 | -0.0265 | -0.038 | -0.0079 | -0.0217 |
| COc1cccc(OCCCN)c1-c1cc(Nc2cnc(C#N)cn2)n[nH]1 [Prexasertib] + O=C(c1cc(Cc2n[nH]c(=O)c3ccccc23)ccc1F)N1CCN(C(=O)C2CC2)CC1 [Olaparib] (first compound max 1 µM, 7x7, partner max 10 µM) | -0.0181 | -0.0649 | -0.0566 | -0.0062 | 0.0003 | -0.0358 | -0.1 | 0.0262 | -0.0509 | -0.123 | -0.0492 | -0.0481 | -0.0179 | -0.169 | -0.0327 | -0.044 | -0.0288 | -0.0424 | -0.0683 | -0.0484 |
| COc1cc2c(cc1OCCCCCOc1cc3c(cc1OC)C(=O)N1C=C(C)C[C@H]1C=N3)N=C[C@@H]1CC(C)=CN1C2=O [SG3199] + O=C(c1cc(Cc2n[nH]c(=O)c3ccccc23)ccc1F)N1CCN(C(=O)C2CC2)CC1 [Olaparib] (first compound max 0.001 µM, 7x7, partner max 10 µM) | -0.0484 | -0.036 | -0.0356 | -0.0234 | -0.0198 | -0.0116 | -0.0209 | 0.011 | -0.0682 | -0.0635 | -0.0457 | -0.03 | -0.0344 | -0.0506 | -0.0238 | -0.0044 | -0.0513 | -0.0598 | -0.0414 | -0.0151 |
| CCc1c2c(nc3ccc(O)cc13)-c1cc3c(c(=O)n1C2)COC(=O)[C@]3(O)CC [SN-38] + CN(C)CCCOc1ccc(-c2ccc3ncc4c(c3c2)n(C2CCOCC2)c(=O)n4C)cn1 [AZD0156] (first compound max 0.3 µM, 7x7, partner max 1 µM) | -0.0022 | -0.0089 | 0.035 | 0.0068 | 0.0978 | -0.018 | -0.0099 | 0.0392 | 0.0219 | 0.0091 | -0.0517 | 0.0473 | -0.0046 | -0.0468 | -0.0327 | -0.0862 | -0.0484 | -0.0858 | -0.0118 | 0.0171 |
| C[C@@H](c1ccc2nccn2c1)n1nnc2ncc(-c3cnn(C)c3)nc21 [Savolitinib] + CC1(C)CCC(CN2CCN(c3ccc(C(=O)NS(=O)(=O)c4ccc(NCC5CCOCC5)c([N+](=O)[O-])c4)c(Oc4cnc5[nH]ccc5c4)c3)CC2)=C(c2ccc(Cl)cc2)C1 [Venetoclax] (first compound max 1 µM, 7x7, partner max 1 µM) | -0.0854 | -0.0925 | -0.0189 | -0.1 | -0.0438 | -0.0642 | -0.0639 | -0.025 | -0.108 | -0.0468 | -0.0524 | -0.0178 | -0.0638 | -0.0682 | -0.0519 | -0.0282 | -0.0344 | -0.0986 | -0.0802 | -0.0546 |
| C[C@@H](c1ccc2nccn2c1)n1nnc2ncc(-c3cnn(C)c3)nc21 [Savolitinib] + Cc1c2c(nn1C)CSCc1cc(n(C)n1)CSc1cc(c3ccccc3c1)OCCCc1c(C(=O)O)n(C)c3c-2c(Cl)ccc13 [AZD5991] (first compound max 1 µM, 7x7, partner max 1 µM) | -0.0561 | -0.0778 | -0.0525 | -0.0947 | -0.0596 | -0.0407 | -0.0684 | -0.0303 | -0.0107 | -0.0219 | -0.0455 | -0.0212 | -0.0434 | -0.0206 | 0.0454 | -0.0462 | -0.0118 | -0.0994 | -0.0549 | -0.0413 |
| Cn1cnc2c(F)c(Nc3ccc(Br)cc3Cl)c(C(=O)NOCCO)cc21 [Selumetinib] + C=CCn1c(=O)c2cnc(Nc3ccc(N4CCN(C)CC4)cc3)nc2n1-c1cccc(C(C)(C)O)n1 [AZD1775] (first compound max 10 µM, partner max 1 µM) | -0.023 | -0.064 | -0.0005 | -0.0169 | -0.0457 | -0.133 | -0.0092 | -0.0543 | -0.0682 | -0.0452 | -0.0776 | -0.105 | -0.0432 | 0.033 | 0.0122 | -0.0508 | 0.0052 | -0.0898 | -0.0318 | -0.0165 |
| Cn1cnc2c(F)c(Nc3ccc(Br)cc3Cl)c(C(=O)NOCCO)cc21 [Selumetinib] + CC(C)n1c(=O)n(C)c2cnc3cc(F)c(-c4ccc(OCCCN5CCCCC5)nc4)cc3c21 [AZD1390] (first compound max 10 µM, 7x7, partner max 0.3 µM) | -0.0371 | -0.0399 | -0.0277 | -0.0387 | -0.0395 | -0.0425 | -0.0814 | -0.018 | -0.0386 | -0.0108 | -0.061 | -0.018 | -0.0477 | -0.0005 | -0.0398 | -0.032 | -0.0344 | -0.0783 | -0.0585 | -0.0468 |
| Cn1cnc2c(F)c(Nc3ccc(Br)cc3Cl)c(C(=O)NOCCO)cc21 [Selumetinib] + CCN(CCO)CCCOc1ccc2c(Nc3cc(CC(=O)Nc4cccc(F)c4)[nH]n3)ncnc2c1 [AZD2811] (first compound max 10 µM, 7x7, partner max 1 µM) | -0.0252 | -0.0614 | -0.0098 | 0.0055 | 0.015 | 0.013 | -0.0196 | -0.0181 | -0.0196 | -0.0464 | -0.0322 | -0.0218 | 0.203 | 0.0517 | -0.0274 | 0.0206 | -0.0013 | -0.0367 | -0.0459 | -0.0214 |
| Cn1cnc2c(F)c(Nc3ccc(Br)cc3Cl)c(C(=O)NOCCO)cc21 [Selumetinib] + C[C@@H]1COCCN1C2=NC(=NC(=C2)C3(CC3)[S@](=N)(=O)C)C4=C5C=CNC5=NC=C4 [AZD6738] (first compound max 10 µM, 7x7, partner max 10 µM) | -0.0455 | -0.0028 | -0.0327 | 0.0773 | -0.0241 | -0.0473 | -0.0017 | -0.0051 | -0.0666 | -0.0914 | 0.004 | -0.0111 | 0.0244 | 0.0596 | -0.0122 | -0.0396 | 0.0267 | -0.07 | 0.0292 | 0.042 |
